The values that follow come from ChEMBL document CHEMBL1135773, “Purine and pyrimidine (P2) receptors as drug targets” (J Med Chem, 2002).

SMILES strings stand for the structures. Where only a bound is given, the exact number is not on record here.

The target in one assay is P2Y purinoceptor 1 (Meleagris gallopavo, UniProt P49652). Description: Evaluated for agonist activity against phospholipase C coupled P2Y purinoceptor 1 (P2Y1) of turkey erythrocytes. The format is functional.
In a further assay the target is T1, P2Y purinoceptor 11 (Homo sapiens, UniProt Q96G91).
T1 sequence (Q96G91 whole entry): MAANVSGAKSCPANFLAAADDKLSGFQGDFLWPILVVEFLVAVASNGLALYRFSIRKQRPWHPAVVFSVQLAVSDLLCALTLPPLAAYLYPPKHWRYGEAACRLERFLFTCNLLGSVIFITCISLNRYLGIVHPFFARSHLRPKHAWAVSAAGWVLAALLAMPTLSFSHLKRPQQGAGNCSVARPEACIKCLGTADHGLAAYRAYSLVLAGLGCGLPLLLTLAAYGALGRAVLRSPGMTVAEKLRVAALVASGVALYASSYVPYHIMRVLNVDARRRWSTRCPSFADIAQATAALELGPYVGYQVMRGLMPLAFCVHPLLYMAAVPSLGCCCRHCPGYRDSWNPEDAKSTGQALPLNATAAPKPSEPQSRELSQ
Description: Agonist activity against phospholipase C coupled human P2Y purinoceptor 11 (P2Y11). It is filed as functional.

The target in another assay is P2Y purinoceptor 6 (Homo sapiens, UniProt Q15077). Description: The compound was evaluated for agonist activity against phospholipase C coupled recombinant human P2Y purinoceptor 6 (P2Y6). It is filed as functional.
For a further assay, the target named is P2Y purinoceptor 2 (Homo sapiens, UniProt P41231). Put plainly: Evaluated for agonist activity against phospholipase C coupled recombinant human P2Y purinoceptor 2 (P2Y2). It is filed as functional.
For the next assay, the target named is P2Y purinoceptor 4 (Homo sapiens, UniProt P51582). Description: The compound was evaluated for antagonist activity against phospholipase C coupled recombinant human P2Y purinoceptor 4 (P2Y4). It is filed as functional.
Another assay concerns the target P2Y purinoceptor 12 (Rattus norvegicus, UniProt Q9EPX4). Put plainly: Antagonist activity against phospholipase C coupled rat P2Y purinoceptor 12 (P2Y12). It is filed as functional.
The target in assay [1] is T2, P2X purinoceptor 1 (Rattus norvegicus, UniProt P47824).
T2 sequence (P47824 whole entry): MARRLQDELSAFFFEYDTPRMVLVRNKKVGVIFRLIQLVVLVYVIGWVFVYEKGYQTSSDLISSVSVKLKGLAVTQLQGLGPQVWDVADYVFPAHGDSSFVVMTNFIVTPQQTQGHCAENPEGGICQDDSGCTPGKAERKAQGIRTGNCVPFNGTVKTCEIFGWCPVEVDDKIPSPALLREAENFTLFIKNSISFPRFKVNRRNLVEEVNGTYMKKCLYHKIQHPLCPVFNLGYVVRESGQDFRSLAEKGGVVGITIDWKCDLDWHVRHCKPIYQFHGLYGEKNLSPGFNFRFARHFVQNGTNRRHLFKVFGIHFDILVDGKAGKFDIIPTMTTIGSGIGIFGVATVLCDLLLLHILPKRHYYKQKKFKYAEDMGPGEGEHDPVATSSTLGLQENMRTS
Description: The compound was evaluated for antagonist activity against recombinant rat P2X purinoceptor 1 (P2X1). It is filed as functional.

Assay [2] addresses T2, P2X purinoceptor 1. Description: The compound was evaluated for antagonist activity against recombinant rat P2X purinoceptor 1 (P2X1) at 1 uM, expressed in Xenopus oocytes. It is filed as functional, cell-based, Oocyte.
Assay [3] has as its target T3, P2X purinoceptor 4 (Rattus norvegicus, UniProt P51577).
T3 sequence (P51577 whole entry): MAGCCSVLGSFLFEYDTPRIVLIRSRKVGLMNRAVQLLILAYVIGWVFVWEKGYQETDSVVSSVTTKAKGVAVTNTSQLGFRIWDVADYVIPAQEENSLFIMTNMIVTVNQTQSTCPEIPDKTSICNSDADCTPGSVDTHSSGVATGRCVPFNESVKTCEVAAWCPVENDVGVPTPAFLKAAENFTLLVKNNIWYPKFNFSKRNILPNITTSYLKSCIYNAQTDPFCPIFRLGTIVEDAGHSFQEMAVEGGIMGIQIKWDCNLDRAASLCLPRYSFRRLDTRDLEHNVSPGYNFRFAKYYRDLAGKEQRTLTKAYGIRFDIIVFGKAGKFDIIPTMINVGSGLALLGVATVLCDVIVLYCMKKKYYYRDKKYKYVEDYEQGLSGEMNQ
Put plainly: Antagonist activity against recombinant rat P2X purinoceptor 4 (P2X4) at 3 uM, expressed in Xenopus oocytes. It is filed as functional, cell-based, Oocyte.

The target in the next assay is T4, P2X purinoceptor 3 (Homo sapiens, UniProt P56373).
T4 sequence (P56373 whole entry): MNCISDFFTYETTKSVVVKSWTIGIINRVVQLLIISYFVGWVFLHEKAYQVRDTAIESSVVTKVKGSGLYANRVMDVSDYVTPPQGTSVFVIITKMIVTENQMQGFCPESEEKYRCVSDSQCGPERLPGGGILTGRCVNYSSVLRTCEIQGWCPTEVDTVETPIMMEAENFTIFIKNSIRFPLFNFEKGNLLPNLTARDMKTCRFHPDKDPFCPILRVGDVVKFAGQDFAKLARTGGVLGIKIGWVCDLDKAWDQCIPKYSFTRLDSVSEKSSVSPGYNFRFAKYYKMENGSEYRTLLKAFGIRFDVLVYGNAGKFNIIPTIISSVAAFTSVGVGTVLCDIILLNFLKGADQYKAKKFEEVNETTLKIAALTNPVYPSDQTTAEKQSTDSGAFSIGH
Description: Antagonist activity against recombinant human P2X purinoceptor 3 (P2X3 ). The format is functional.

For assay [4], the target named is T5, P2X purinoceptor 1 (Homo sapiens, UniProt P51575).
T5 sequence (P51575 whole entry): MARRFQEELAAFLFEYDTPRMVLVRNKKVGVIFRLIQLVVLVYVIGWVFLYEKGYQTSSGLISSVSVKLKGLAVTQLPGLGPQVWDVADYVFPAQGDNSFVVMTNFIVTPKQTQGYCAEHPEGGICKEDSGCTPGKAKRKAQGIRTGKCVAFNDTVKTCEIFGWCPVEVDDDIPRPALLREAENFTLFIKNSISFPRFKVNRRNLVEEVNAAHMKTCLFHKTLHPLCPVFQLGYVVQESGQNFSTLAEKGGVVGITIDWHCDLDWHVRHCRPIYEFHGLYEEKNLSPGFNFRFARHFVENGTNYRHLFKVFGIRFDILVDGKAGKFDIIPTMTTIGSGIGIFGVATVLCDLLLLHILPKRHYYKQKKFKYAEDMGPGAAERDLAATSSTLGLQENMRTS
Put plainly: Antagonist activity against recombinant human P2X purinoceptor 1 (P2X1 ). It is filed as functional.

The target in assay [5] is T6, P2X purinoceptor 4 (Homo sapiens, UniProt Q99571).
T6 sequence (Q99571 whole entry): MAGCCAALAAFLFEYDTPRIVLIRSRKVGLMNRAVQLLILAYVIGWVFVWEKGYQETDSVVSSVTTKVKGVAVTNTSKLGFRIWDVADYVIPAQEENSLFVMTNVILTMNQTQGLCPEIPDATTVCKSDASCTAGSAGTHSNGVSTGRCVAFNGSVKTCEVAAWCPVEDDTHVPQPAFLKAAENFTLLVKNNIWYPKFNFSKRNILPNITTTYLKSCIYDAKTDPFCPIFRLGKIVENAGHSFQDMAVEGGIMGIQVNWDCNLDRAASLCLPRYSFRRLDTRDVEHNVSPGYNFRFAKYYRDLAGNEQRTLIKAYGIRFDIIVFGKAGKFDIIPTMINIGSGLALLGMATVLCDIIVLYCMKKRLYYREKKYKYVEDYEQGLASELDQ
Description: Antagonist activity against recombinant human P2X purinoceptor 4 (P2X4). It is filed as functional.

The target of the next assay is T7, P2X purinoceptor 2 (Rattus norvegicus, UniProt P49653).
T7 sequence (P49653 whole entry): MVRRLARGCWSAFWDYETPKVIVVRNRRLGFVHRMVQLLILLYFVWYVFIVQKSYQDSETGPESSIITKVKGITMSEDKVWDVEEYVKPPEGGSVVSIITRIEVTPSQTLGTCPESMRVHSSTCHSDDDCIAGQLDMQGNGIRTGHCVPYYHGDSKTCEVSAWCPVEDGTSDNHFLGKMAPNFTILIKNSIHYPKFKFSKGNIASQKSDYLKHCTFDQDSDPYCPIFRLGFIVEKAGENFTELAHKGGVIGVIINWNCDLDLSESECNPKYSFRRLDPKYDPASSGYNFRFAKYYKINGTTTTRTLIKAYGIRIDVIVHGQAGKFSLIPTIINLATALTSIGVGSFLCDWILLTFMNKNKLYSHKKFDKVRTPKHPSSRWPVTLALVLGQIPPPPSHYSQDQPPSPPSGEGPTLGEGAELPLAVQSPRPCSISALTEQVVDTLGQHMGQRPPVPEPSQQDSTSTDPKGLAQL
Put plainly: Antagonist activity against recombinant rat receptor P2X purinoceptor 2 (P2X2) at 10 uM, expressed in Xenopus oocytes. The format is functional, cell-based, Oocyte.

Chain of P2Y purinoceptor 1 (P49652 whole entry): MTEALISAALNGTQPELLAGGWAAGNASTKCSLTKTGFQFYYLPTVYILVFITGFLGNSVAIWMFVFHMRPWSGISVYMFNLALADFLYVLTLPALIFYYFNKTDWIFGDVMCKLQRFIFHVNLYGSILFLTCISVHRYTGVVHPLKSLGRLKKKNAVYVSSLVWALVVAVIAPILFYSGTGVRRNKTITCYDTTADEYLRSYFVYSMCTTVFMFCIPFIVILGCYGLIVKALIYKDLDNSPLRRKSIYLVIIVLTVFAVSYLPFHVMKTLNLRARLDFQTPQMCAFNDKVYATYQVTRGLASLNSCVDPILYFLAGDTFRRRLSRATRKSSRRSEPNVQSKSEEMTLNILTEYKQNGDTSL
Chain of P2Y purinoceptor 2 (P41231 whole entry): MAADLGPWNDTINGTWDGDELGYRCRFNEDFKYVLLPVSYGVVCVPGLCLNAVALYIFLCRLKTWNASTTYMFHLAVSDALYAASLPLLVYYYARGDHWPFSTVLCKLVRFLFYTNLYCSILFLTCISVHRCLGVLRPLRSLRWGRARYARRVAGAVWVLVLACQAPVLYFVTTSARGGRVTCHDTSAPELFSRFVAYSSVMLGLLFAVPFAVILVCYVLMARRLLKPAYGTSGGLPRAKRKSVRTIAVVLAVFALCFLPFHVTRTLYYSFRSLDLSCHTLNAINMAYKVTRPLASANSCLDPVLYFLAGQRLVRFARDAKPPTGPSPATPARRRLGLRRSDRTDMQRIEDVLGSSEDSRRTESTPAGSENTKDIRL
Chain of P2Y purinoceptor 12 (Q9EPX4 whole entry): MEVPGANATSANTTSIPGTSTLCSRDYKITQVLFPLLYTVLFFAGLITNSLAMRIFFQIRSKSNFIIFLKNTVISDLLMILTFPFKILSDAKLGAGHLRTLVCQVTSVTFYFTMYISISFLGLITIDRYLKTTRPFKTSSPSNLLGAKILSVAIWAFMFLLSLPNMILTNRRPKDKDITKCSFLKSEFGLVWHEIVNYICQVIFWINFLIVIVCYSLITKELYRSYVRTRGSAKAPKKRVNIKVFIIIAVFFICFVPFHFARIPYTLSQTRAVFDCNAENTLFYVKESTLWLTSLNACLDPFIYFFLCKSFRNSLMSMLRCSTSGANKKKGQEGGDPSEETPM
Chain of P2Y purinoceptor 6 (Q15077 whole entry): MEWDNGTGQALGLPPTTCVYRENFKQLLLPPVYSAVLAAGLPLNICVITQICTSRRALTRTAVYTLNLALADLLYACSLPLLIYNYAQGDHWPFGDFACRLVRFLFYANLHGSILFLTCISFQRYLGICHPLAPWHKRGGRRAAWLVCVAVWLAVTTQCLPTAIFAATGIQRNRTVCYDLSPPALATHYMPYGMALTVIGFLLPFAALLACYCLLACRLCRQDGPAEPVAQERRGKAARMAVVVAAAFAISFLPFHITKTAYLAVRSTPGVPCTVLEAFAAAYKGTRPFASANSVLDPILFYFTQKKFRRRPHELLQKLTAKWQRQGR
Chain of P2Y purinoceptor 4 (P51582 whole entry): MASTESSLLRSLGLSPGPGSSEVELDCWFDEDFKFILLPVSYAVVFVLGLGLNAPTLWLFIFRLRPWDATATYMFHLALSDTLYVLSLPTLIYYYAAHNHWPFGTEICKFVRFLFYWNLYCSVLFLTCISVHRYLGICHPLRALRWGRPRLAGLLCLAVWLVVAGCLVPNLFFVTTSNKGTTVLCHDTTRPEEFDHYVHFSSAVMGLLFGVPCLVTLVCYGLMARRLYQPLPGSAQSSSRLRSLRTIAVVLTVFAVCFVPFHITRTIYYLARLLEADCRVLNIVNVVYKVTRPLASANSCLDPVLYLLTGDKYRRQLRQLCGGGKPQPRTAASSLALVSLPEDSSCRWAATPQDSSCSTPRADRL

Consider `CNc1nc(Cl)nc2c1ncn2[C@H]1C[C@@H](OP(=O)(O)O)[C@]2(COP(=O)(O)O)C[C@H]12`, for which the EC50 (usually the concentration at which the effect is half-maximal) at P2Y purinoceptor 1 was 0.052 µM; at P2Y purinoceptor 11 it was above 100 µM; on P2Y purinoceptor 6, above 100 µM; at P2Y purinoceptor 2, above 100 µM; at P2Y purinoceptor 4, above 100 µM; on P2Y purinoceptor 12 it was above 100 µM.

Consider `Cc1nc(/N=N/c2cc(S(=O)(=O)O)c3cc([N+](=O)[O-])cc(S(=O)(=O)O)c3c2)c(COP(=O)(O)O)c(C=O)c1O`, for which, on P2X purinoceptor 1 [1], the EC50 worked out at 0.014 µM.

Consider `CSc1nc(N)c2ncn([C@@H]3O[C@H](COP(=O)(O)OP(=O)(O)O)[C@@H](O)[C@H]3O)c2n1`, for which, on P2Y purinoceptor 2, the EC50 was above 100 µM.

As for `Nc1ccc(CCSc2nc(N)c3ncn([C@@H]4O[C@H](COP(=O)(O)OP(=O)(O)OP(=O)(O)O)[C@@H](O)[C@H]4O)c3n2)cc1`, the EC50 turned out to be 0.0015 µM at P2Y purinoceptor 1, 0.098 µM on P2X purinoceptor 1 [2] and 15 µM on P2X purinoceptor 4 [3].

The molecule `Nc1ncnc2c1ncn2[C@@H]1CO[C@H](COP(=O)(O)O)[C@@H](OP(=O)(O)O)C1` registered an EC50 at P2Y purinoceptor 1 of 0.003 µM.

In turn, `Nc1ncnc2c1ncn2[C@H]1CC(OP(=O)(O)O)C2(COP(=O)(O)O)CC12` (some centres undefined) came in with an EC50 at P2Y purinoceptor 1 of 0.155 µM.

With `Nc1ncnc2c1ncn2[C@@H]1O[C@H](COP(=O)(O)OP(=O)(O)S)[C@@H](O)[C@H]1O` (some centres undefined), the EC50 on P2Y purinoceptor 11 was determined as 30 µM; at P2X purinoceptor 3, 8.8 µM; at P2X purinoceptor 1 [4], 2.5 µM; on P2X purinoceptor 4 [5], 25 µM; at P2X purinoceptor 2, 100 µM; on P2Y purinoceptor 12, 0.082 µM.
